The target in test [1] is T1, Tyrosine-protein kinase ABL1 (Homo sapiens, UniProt P00519). Kind of test: Displacement of ALLO-1 from allosteric site of N-terminal His6-tagged ABL (83 to 534 residues) (unknown origin) expressed in Escherichia coli co-expressing Protein Tyrosine Phosphatase 1b at 25 to 250 uM by 19F NMR spectroscopy based dual-site competition assay.
Test [2] deals with T1, Tyrosine-protein kinase ABL1. Kind of test: Displacement of CAT-1 from catalytic site of N-terminal His6-tagged ABL (83 to 534 residues) (unknown origin) expressed in Escherichia coli co-expressing Protein Tyrosine Phosphatase 1b at 25 and 50 uM by 19F NMR spectroscopy based dual-site competition assay.
The target is the same in test [3]. Kind of test: Displacement of CAT-1 from catalytic site of N-terminal His6-tagged ABL (83 to 534 residues) (unknown origin) expressed in Escherichia coli co-expressing Protein Tyrosine Phosphatase 1b at 25 to 250 uM by 19F NMR spectroscopy based dual-site competition assay.
Test [4] has the same target. Description: Binding affinity to allosteric site of N-terminal His6-tagged ABL (83 to 534 residues) (unknown origin) expressed in Escherichia coli co-expressing Protein Tyrosine Phosphatase 1b at 25 uM in presence of ABL001.
For test [5] the target is unchanged. Kind of test: Binding affinity to catalytic site of N-terminal His6-tagged ABL (83 to 534 residues) (unknown origin) expressed in Escherichia coli co-expressing Protein Tyrosine Phosphatase 1b by NMR spectroscopy based dual-site competition assay.

Drawing on ChEMBL document CHEMBL4033755, “19F-NMR-Based Dual-Site Reporter Assay for the Discovery and Distinction of Catalytic and Allosteric Kinase Inhibitors” (ACS Med Chem Lett, 2017), this text covers inhibition, Activity and Kd for two compounds.

Calls of active or inactive are those of the source. No cut-off for these calls is given here.

T1 sequence (P00519 whole entry, the tested form may be a part): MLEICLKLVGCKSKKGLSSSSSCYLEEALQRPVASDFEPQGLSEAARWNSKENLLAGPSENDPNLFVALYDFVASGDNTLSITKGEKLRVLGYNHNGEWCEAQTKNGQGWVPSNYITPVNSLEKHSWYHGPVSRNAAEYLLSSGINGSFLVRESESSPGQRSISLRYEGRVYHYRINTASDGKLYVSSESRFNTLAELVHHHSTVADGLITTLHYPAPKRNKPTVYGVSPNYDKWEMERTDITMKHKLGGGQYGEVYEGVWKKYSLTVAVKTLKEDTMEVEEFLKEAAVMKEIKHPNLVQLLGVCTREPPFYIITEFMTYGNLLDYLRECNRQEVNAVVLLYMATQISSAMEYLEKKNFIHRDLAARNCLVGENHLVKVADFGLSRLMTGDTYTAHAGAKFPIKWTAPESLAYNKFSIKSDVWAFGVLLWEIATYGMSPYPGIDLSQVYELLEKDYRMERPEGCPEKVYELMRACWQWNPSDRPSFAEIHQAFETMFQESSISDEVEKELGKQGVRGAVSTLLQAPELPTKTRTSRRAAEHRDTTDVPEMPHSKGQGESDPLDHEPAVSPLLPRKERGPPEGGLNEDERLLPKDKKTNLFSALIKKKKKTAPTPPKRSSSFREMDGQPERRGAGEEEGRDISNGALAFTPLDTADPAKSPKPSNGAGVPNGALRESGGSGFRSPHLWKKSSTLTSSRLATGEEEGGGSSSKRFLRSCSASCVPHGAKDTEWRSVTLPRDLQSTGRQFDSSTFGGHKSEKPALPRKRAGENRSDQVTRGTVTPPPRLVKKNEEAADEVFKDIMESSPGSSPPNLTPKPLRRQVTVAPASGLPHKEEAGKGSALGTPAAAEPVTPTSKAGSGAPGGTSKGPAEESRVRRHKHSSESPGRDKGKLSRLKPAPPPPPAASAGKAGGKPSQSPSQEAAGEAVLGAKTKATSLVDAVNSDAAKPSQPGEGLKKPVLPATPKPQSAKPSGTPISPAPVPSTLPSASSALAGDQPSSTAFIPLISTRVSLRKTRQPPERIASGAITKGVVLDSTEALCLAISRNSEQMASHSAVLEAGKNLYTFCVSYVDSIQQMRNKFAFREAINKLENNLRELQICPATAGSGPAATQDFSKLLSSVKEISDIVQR

Take `FC(F)(F)Oc1ccc(Nc2ccncn2)cc1`: the inhibition result in test [1] and in test [3] was “Active” throughout. Besides, the inhibition entry in test [2] is “inactive”.

Regarding `NC(=O)C1CCN(c2ccc(C(F)(F)F)cn2)CC1`, the result in test [4] was Active. In test [5], this compound came in with a Kd of 43 µM.

As a reminder, the Kd is the free concentration of one partner at which half of the binding sites on the other are occupied at equilibrium, for simple one-to-one binding. High values mean lower affinity, low ones higher affinity.
